From patent US8735411B2, “Macrocyclic benzofused pyrimidine derivatives” (AbbVie Inc., priority 2006, dated 2014) come the findings set out here.

The assay has as its target histamine H4 receptor (Homo sapiens, UniProt Q9H3N8). The assay can be described thus: In vitro histamine H4 potency in FLIPR (Ca2+ flux, HEK-293 cells coexpressing Gαqi5). The assay is classed as cell-based. Also on record: expressed in transfected cells. Particulars: Kb for antagonists and inverse agonists, EC50 for partial agonists. The source says: There are many methods available to show the effectiveness of compounds as histamine H4 receptor ligands. Histamine H4 receptors from mammalian species have been cloned. Methods to clone, express, and assess the potency and functional activity of such cloned genes are well known to those skilled in the art of molecular biology. […] Before testing, cells are loaded with a Ca^+2 sensitive fluorescent dye, in this case Fluo-4. In the case of partial agonist or agonist ligands, addition of compound to the cells leads to the increase in intracellular Ca^+2 which is detected by FLIPR (Fluorescence Imaging Plate Reader; Molecular Devices, Sunnyvale, Calif.) technology. […] The fluorescence intensities measured before addition of the test compound are subtracted from the fluorescence intensities at later time points. Peak response values determined at each concentration of ligand are expressed as a percentage of the response obtained with the full agonist histamine. Concentration versus response data are analyzed to obtain compound potency as Kb values for antagonists and inverse agonists and as EC50 values for partial agonists.
In general terms: Calcium assays in cells follow changes in intracellular calcium, usually with a dye or a luminescent sensor.

Chain of histamine H4 receptor (Q9H3N8 whole entry): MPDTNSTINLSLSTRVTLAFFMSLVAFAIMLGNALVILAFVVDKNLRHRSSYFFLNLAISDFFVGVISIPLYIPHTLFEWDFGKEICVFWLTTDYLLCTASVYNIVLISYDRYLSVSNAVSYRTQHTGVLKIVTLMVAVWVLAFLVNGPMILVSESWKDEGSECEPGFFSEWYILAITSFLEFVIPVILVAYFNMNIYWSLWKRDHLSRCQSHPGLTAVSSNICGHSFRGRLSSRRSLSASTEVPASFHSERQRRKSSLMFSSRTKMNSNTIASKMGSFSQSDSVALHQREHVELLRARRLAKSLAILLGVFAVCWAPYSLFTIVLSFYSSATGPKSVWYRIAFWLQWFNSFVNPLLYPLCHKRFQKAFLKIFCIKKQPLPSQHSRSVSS

In the case of `CNC1CN(c2nc(N)nc3c2CCCc2ccc(F)cc2-3)C1` [Example 12, 10-Fluoro-4-(3-methylamino-azetidin-1-yl)-6,7-dihydro-5H-benzo[6,7]cyclohepta[1,2-d]pyrimidin-2-ylamine], the Potency was 7.4 nM. For `COC(=O)c1nc2c(c(N3CC4CCCNC4C3)n1)CCCc1ccccc1-2` (stereo not shown) [Example 133, 4-(Octahydro-pyrrolo[3,4-b]pyridin-6-yl)-6,7-dihydro-5-benzo[6,7]cyclohepta[1,2-d]pyrimidine-2-carboxylic acid methyl ester], the Potency came out at 14454 nM.

The compound `Nc1nc2c(c(N3CC[C@H]4CNC[C@H]43)n1)CCCc1ccccc1-2` [Example 119, (3aS,6aS)-4-(Hexahydro-pyrrolo[3,4-b]pyrrol-1-yl)-6,7-dihydro-5H-benzo[6,7]cyclohepta[1,2-d]pyrimidin-2-amine] returned a Potency of 269 nM. For `CN[C@@H]1CCN(c2nc(N)nc3c2CCc2ccccc2-3)C1` [Example 39, 4-(3-(R)-Methylamino-pyrrolidin-1-yl)-5,6-dihydro-benzo[h]quinazolin-2-ylamine], the Potency is 22 nM. Regarding `Cc1cc(C)c2c(c1)-c1nc(N)nc(N3CCNCC3)c1CCC2` [Example 126, 8,10-Dimethyl-4-piperazin-1-yl-6,7-dihydro-5H-benzo[6,7]cyclohepta[1,2-d]pyrimidin-2-ylamine], the Potency is 2754 nM. With `c1cncc(CNc2nc3c(c(N4CC5CCCNC5C4)n2)CCCc2ccccc2-3)c1` (stereo not shown) [Example 92, 6-(2-pyridin-3-ylmethylamino-6,7-dihydro-5H-benzo[6,7]cyclohepta[1,2-d]pyrimidin-4-yl)octahydro-1H-pyrrolo[3,4-b]pyridine], the Potency is on record as 2570 nM. `CN[C@@H]1CCN(c2nc(N)nc3c2CCCc2cc4c(cc2-3)CCCC4)C1` [Example 97, 4-((R)-3-Methylamino-pyrrolidin-1-yl)-6,7,9,10,11,12-hexahydro-5H-1,3-diaza-benzo[3,4]cyclohepta[1,2-b]naphthalen-2-ylamine] showed a Potency of 29 nM. In the case of `NCCC(=O)Nc1nc2c(c(N3CCNCC3)n1)CCCc1ccccc1-2` [Example 93, 3-Amino-N-(4-piperazin-1-yl-6,7-dihydro-5H-benzo[6,7]cyclohepta[1,2-d]pyrimidin-2-yl)-propionamide], the Potency was found to be 135 nM. `Nc1nc(NC2CCCC3CNCC32)c2c(n1)-c1ccccc1CCC2` (stereo not shown) [Example 122, N^4-(Octahydro-isoindol-4-yl)-6,7-dihydro-5H-benzo[6,7]cyclohepta[1,2-d]pyrimidine-2,4-diamine] registered a Potency of 1288 nM. The compound `CN(C)CCNc1nc2c(c(N3CCNCC3)n1)CCCc1ccccc1-2` [Example 95, N,N-Dimethyl-N′-(4-piperazin-1-yl-6,7-dihydro-5H-benzo[6,7]cyclohepta[1,2-d]pyrimidin-2-yl)-ethane-1,2-diamine] came in with a Potency of 1413 nM.

Take `CN[C@@H]1CCN(c2nc(N)nc3c2S(=O)(=O)CCc2ccccc2-3)C1` [Example 111, 4-((R)-3-Methylamino-pyrrolidin-1-yl)-5,5-dioxo-6,7-dihydro-5H-5λ6-thia-1,3-diaza-dibenzo[a,c]cyclohepten-2-ylamine]: the Potency was 1413 nM. Consider `CN[C@@H]1CCN(c2nc(N)nc3c2CCOc2cc(Cl)ccc2-3)C1` [Example 48, 9-chloro-4-[(3R)-3-(methylamino)pyrrolidin-1-yl]-5,6-dihydro[1]benzoxepino[5,4-d]pyrimidin-2-amine], for which the Potency turned out to be 43 nM. Turning to `Nc1nc2c(c(N3CCC4CC3CN4)n1)CCCc1ccccc1-2` (stereo not shown) [Example 82, 4-(2,6-Diaza-bicyclo[3.2.1]oct-2-yl)-6,7-dihydro-5H-benzo[6,7]cyclohepta[1,2-d]pyrimidin-2-ylamine], the Potency worked out at 2042 nM. Consider `CNC1CN(c2nc(N)nc3c2CC[S+]([O-])c2ccccc2-3)C1` (stereo not shown) [Example 37, 4-(3-Methylamino-azetidin-1-yl)-7-oxo-6,7-dihydro-5H-7λ4-thia-1,3-diaza-dibenzo[a,c]cyclohepten-2-ylamine], for which the Potency amounted to 537 nM.

`CNC1CN(c2nc(N)nc3c2CC(C)c2ccccc2-3)C1` (stereo not shown) [Example 2, 6-Methyl-4-(3-methylamino-azetidin-1-yl)-5,6-dihydro-benzo[h]quinazolin-2-ylamine] returned a Potency of 44 nM. Turning to `Nc1nc2c(c(N3CCCNCC3)n1)CCCc1ccccc1-2` [Example 116, 4-[1,4]Diazepan-1-yl-6,7-dihydro-5H-benzo[6,7]cyclohepta[1,2-d]pyrimidin-2-ylamine], the Potency is reported as 15 nM. `Nc1nc2c(c(N3C[C@@H]4C[C@H]3CN4)n1)CCCc1ccccc1-2` [Example 17, 4-((1S,4S)-2,5-Diaza-bicyclo[2.2.1]hept-2-yl)-6,7-dihydro-5H-benzo[6,7]cyclohepta[1,2-d]pyrimidin-2-ylamine] displayed a Potency of 912 nM. In the case of `Nc1nc2c(c(N3CCN4CCCC4C3)n1)CCCc1ccccc1-2` (stereo not shown) [Example 80, 4-(Octahydro-pyrrolo[1,2-a]pyrazin-2-yl)-6,7-dihydro-5H-benzo[6,7]cyclohepta[1,2-d]pyrimidin-2-ylamine], the Potency was determined as 178 nM. As to `CNC1CN(c2nc(N)nc3c2COc2ccccc2-3)C1` [Example 8, 1-(3-Methylamino-azetidin-1-yl)-10H-9-oxa-2,4-diaza-phenanthren-3-ylamine], the Potency is recorded as 33 nM. The compound `CN[C@@H]1CCN(c2nc(N)nc3c2COc2ccccc2-3)C1` [Example 9, 1-(3-(R)-Methylamino-pyrrolidin-1-yl)-10H-9-oxa-2,4-diaza-phenanthren-3-ylamine] returned a Potency of 32 nM.

In turn, `COC(=O)c1ccc2c(c1)OCCc1c-2nc(N)nc1N1CC2CCCNC2C1` (stereo not shown) [Example 108, 2-Amino-4-octahydro-pyrrolo[3,4-b]pyridin-6-yl-5,6-dihydro-7-oxa-1,3-diaza-dibenzo[a,c]cycloheptene-9-carboxylic acid methyl ester] yielded a Potency of 53 nM. Next, `Nc1nc2c(c(N3CC4CNCC3C4)n1)CCCc1ccccc1-2` (stereo not shown) [Example 81, 4-(3,6-Diaza-bicyclo[3.2.1]oct-6-yl)-6,7-dihydro-5H-benzo[6,7]cyclohepta[1,2-d]pyrimidin-2-ylamine]: 4169 nM. Next, `COC(=O)N(C)c1ccc2c(c1)-c1nc(N)nc(N3CC4CCCNC4C3)c1CCC2` (stereo not shown) [Example 130, (2-Amino-4-octahydro-pyrrolo[3,4-b]pyridin-6-yl-6,7-dihydro-5H-benzo[6,7]cyclohepta[1,2-d]pyrimidin-10-yl)-methyl-carbamic acid methyl ester]: 164 nM; `Nc1nc2c(c(N3CCNCC3)n1)SCCc1ccccc1-2` [Example 109, 4-Piperazin-1-yl-6,7-dihydro-5-thia-1,3-diaza-dibenzo[a,c]cyclohepten-2-ylamine]: 87 nM; `CN[C@@H]1CCN(c2nc(N)nc3c2CCOc2c(C)cccc2-3)C1` [Example 52, 8-Methyl-4-((R)-3-methylamino-pyrrolidin-1-yl)-5,6-dihydro-7-oxa-1,3-diaza-dibenzo[a,c]cyclohepten-2-ylamine]: 56 nM. The result for `CN1CCCC(Oc2nc(N)nc3c2CCCc2ccccc2-3)C1` (stereo not shown) [Example 69, 4-(1-Methyl-piperidin-3-yloxy)-6,7-dihydro-5H-benzo[6,7]cyclohepta[1,2-d]pyrimidin-2-ylamine] reads 3162 nM; that for `CN[C@H]1CCN(c2nc(N)nc3c2CCCc2ccccc2-3)C1` [Example 14, 4-[(3S)-3-Methylamino-pyrrolidin-1-yl]-6,7-dihydro-5H-benzo[6,7]cyclohepta[1,2-d]pyrimidin-2-ylamine], 331 nM. Consider `NCC(=O)Nc1nc2c(c(N3CCNCC3)n1)CCCc1ccccc1-2` [Example 89, 2-Amino-N-(4-piperazin-1-yl-6,7-dihydro-5H-benzo[6,7]cyclohepta[1,2-d]pyrimidin-2-yl)-acetamide], for which the Potency was determined as 89 nM. For the compound `Nc1nc2c(c(N3CC[C@H](N)C3)n1)CCCCc1ccccc1-2` [Example 56, 4-[(3S)-3-aminopyrrolidin-1-yl]-5,6,7,8-tetrahydrobenzo[7,8]cycloocta[1,2-d]pyrimidin-2-amine], the Potency is reported as 115 nM. The compound `Nc1nc2c(c(N3CC4CCCNC4C3)n1)CCCc1ccccc1-2` (stereo not shown) [Example 59, 4-octahydro-6H-pyrrolo[3,4-b]pyridin-6-yl-6,7-dihydro-5H-benzo[6,7]cyclohepta[1,2-d]pyrimidin-2-amine] registered a Potency of 44 nM. Regarding `Nc1nc2c(c(N3CC4CNCC4C3)n1)CCCc1ccccc1-2` (stereo not shown) [Example 22, 4-(Hexahydro-pyrrolo[3,4-c]pyrrol-2-yl)-6,7-dihydro-5H-benzo[6,7]cyclohepta[1,2-d]pyrimidin-2-ylamine], the Potency is 66 nM. In turn, `Nc1nc2c(c(N3CC4CCCNC4C3)n1)CCOc1cc(-c3cccnc3)ccc1-2` (stereo not shown) [Example 106, 4-Octahydro-pyrrolo[3,4-b]pyridin-6-yl-9-pyridin-3-yl-5,6-dihydro-7-oxa-1,3-diaza-dibenzo[a,c]cyclohepten-2-ylamine] registered a Potency of 140 nM. As to `O=C(O)c1nc2c(c(N3CC4CCCNC4C3)n1)CCCc1ccccc1-2` (stereo not shown) [Example 134, 4-(Octahydro-pyrrolo[3,4-b]pyridin-6-yl)-6,7-dihydro-5H-benzo[6,7]cyclohepta[1,2-d]pyrimidine-2-carboxylic acid], the Potency was 11885 nM.

The compound `c1ccc2c(c1)CCCc1c-2ncnc1N1CCNCC1` [Example 118, 4-Piperazin-1-yl-6,7-dihydro-5H-benzo[6,7]cyclohepta[1,2-d]pyrimidine] registered a Potency of 138 nM.
